Reference: PMC3553658 (Combinatorial chemistry & high throughput screening, 2012)
“Also recorded” adds a separate entry of the source.

How the values were obtained:
Assay type in all cases: biochemical
[1] = biological target: T1, SET8 (Homo sapiens, UniProt Q9NQR1); assay: SPIA-bead assay; settings: read-out: SET8 [% IHBN], SPIA primary screen, 10 μM compound, duplicate
T1 sequence (Q9NQR1 191-352 isoform Q9NQR1-2): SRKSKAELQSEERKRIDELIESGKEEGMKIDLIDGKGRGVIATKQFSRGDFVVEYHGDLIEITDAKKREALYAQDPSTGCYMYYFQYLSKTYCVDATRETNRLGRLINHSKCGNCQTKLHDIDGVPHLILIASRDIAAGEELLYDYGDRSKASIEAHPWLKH

[2] = biological target: T2, EuHMTase1 (Homo sapiens, UniProt Q9H9B1); assay: Filter-paper assay dose response, EuHMTase1; settings: up to 100 μM
T2 sequence (Q9H9B1 982-1266): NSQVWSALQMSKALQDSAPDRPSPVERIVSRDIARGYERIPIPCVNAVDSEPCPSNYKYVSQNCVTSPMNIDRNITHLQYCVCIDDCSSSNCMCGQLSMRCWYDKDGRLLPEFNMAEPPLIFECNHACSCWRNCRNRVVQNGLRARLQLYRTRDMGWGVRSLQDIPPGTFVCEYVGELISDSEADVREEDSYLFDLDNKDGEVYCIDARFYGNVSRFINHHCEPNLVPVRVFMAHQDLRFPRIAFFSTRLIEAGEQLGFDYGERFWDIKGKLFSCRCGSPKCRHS

[3] = biological target: T1, SET8; assay: Filter-paper assay dose response, SET8; settings: up to 100 μM
[4] = biological target: T3, SET7/9 (Homo sapiens, UniProt Q8WTS6); assay: Filter-paper assay dose response, SET7/9; settings: up to 100 μM
T3 sequence (Q8WTS6 1-366): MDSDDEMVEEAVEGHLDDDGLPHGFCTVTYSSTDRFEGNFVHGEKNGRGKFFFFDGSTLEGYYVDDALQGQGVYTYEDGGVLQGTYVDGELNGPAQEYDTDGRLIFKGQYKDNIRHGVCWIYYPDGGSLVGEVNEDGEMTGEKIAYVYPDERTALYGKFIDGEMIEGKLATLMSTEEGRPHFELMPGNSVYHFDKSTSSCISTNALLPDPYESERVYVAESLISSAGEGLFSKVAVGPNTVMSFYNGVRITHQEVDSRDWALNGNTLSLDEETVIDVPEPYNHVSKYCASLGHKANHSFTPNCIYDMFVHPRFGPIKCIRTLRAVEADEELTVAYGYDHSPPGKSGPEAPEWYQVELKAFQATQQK

[5] = biological target: T4, SETD2 (Homo sapiens, UniProt Q9BYW2); assay: Filter-paper assay dose response, SETD2; settings: up to 100 μM
T4 sequence (Q9BYW2 1347-1711): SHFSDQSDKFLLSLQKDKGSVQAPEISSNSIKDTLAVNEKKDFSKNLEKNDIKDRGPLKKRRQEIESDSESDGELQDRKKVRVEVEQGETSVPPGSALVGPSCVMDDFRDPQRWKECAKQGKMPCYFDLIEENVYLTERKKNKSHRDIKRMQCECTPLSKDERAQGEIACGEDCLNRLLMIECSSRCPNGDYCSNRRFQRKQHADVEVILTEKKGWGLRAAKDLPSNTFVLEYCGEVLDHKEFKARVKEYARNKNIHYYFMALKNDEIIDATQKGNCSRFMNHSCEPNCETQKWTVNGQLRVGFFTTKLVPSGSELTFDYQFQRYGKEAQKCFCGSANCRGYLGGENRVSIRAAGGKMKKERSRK

[6] = biological target: T4, SETD2; assay: SPIA-bead assay; settings: SPIA primary screen, 10 μM compound, duplicate
[7] = biological target: T3, SET7/9; assay: SPIA-bead assay; settings: SPIA primary screen, 10 μM compound, duplicate

SET7/9 [% IHBN] [7]	Structure (SMILES)	inhibition at 10 µM [1]	Inhibition of EuHMTase1 in filter-paper assay [2]	Inhibition of SET8 in filter-paper assay [3]	Inhibition of SET7/9 in filter-paper assay [4]	Inhibition of SETD2 in filter-paper assay [5]	SETD2 [% IHBN] [6]
–	O=C(O)CCCC[C@@H]1SC[C@@H]2NC(=O)N[C@@H]21 [Biotin]	60 to 90%	no inhibition; also recorded: did not find inhibition	no inhibition; also recorded: did not find inhibition	no inhibition; also recorded: did not find inhibition	no inhibition; also recorded: did not find inhibition	60–90%
83%	O=C(Nc1ccc(C(=O)Nc2ccc(C(=O)Nc3ccc(S(=O)(=O)[O-])c4cc(S(=O)(=O)[O-])cc(S(=O)(=O)[O-])c34)cc2)cc1)Nc1ccc(C(=O)Nc2ccc(C(=O)Nc3ccc(S(=O)(=O)[O-])c4cc(S(=O)(=O)[O-])cc(S(=O)(=O)[O-])c34)cc2)cc1.[Na+].[Na+].[Na+].[Na+].[Na+].[Na+] [NF 279, 8,8′-[Carbonylbis(imino-4,1-phenylenecarbonylimino-4,1-phenylenecarbonylimino)]bis-1,3,5-naphtlenetrisulfonic acid hexasodium salt]	–	–	–	–	–	–
